Results from ChEMBL document CHEMBL3822378, “Click-based synthesis and antitubercular evaluation of dibenzofuran tethered thiazolyl-1,2,3-triazolyl acetamides” (Bioorg Med Chem Lett, 2016).
In brackets after ≈: the same amount, converted by molar mass.

Experiments:
[1] = test system: Staphylococcus epidermidis; assay: Antibacterial activity against Staphylococcus epidermidis 2D866 by two-fold agar dilution method; assay type: functional
[2] = test system: Mycobacterium tuberculosis; assay: Antitubercular activity against Mycobacterium tuberculosis H37Rv by microplate alamar blue assay; assay type: functional
[3] = Cytotoxicity against mouse RAW264.7 cells assessed as growth inhibition at 50 ug/ml after 72 hrs by MTT assay; assay type: cell-based; details: read-out: GI
[4] = test system: Mycobacterium tuberculosis; assay: Antitubercular activity against Mycobacterium tuberculosis H37Rv ATCC 27294 after 28 days by two-fold agar dilution method; assay type: functional; details: H37Rv ATCC 27294, 672 h

SMILES | inhibition at 72 h, 50 ug/ml [3] | MIC [4] | other results
CCCCCC(=O)c1c(OC)c(Cl)c2oc3c(Cl)c(OC)c(Cl)c(O)c3c2c1O | – | – | MIC [1]: 0.39 µg/mL (≈ 0.845 µM)
CC(=O)C1=C(O)C=C2Oc3c(C(C)=O)c(O)c(C)c(O)c3C2(C)C1=O (stereo not drawn) | – | – | MIC [2]: 12.5 µg/mL (≈ 36.3 µM)
O=C(Cn1cc(C2(O)CCCC2)nn1)Nc1nc(-c2ccc3oc4ccccc4c3c2)cs1 | 22.2% | 12.5 µg/mL (≈ 27.2 µM) | –
Cc1ccc(-c2cn(CC(=O)Nc3nc(-c4ccc5oc6ccccc6c5c4)cs3)nn2)cc1 | – | 50 µg/mL (≈ 107 µM) | –
O=C(Cn1cc(-c2cc(C(F)(F)F)cc(C(F)(F)F)c2)nn1)Nc1nc(-c2ccc3oc4ccccc4c3c2)cs1 | – | 25 µg/mL (≈ 42.6 µM) | –
CCCCCc1ccc(-c2cn(CC(=O)Nc3nc(-c4ccc5oc6ccccc6c5c4)cs3)nn2)cc1 | – | > 50 µg/mL | –
O=C(Cn1cc(CCc2ccccc2)nn1)Nc1nc(-c2ccc3oc4ccccc4c3c2)cs1 | – | > 50 µg/mL | –
O=C(Cn1cc(-c2ccccc2)nn1)Nc1nc(-c2ccc3oc4ccccc4c3c2)cs1 | 20.4% | 3.12 µg/mL (≈ 6.91 µM) | –
CCCc1cn(CC(=O)Nc2nc(-c3ccc4oc5ccccc5c4c3)cs2)nn1 | – | 50 µg/mL (≈ 120 µM) | –
COc1cccc(-c2cn(CC(=O)Nc3nc(-c4ccc5oc6ccccc6c5c4)cs3)nn2)c1 | 18.1% | 6.25 µg/mL (≈ 13 µM) | –
O=C(Cn1cc(-c2ccc(F)cc2F)nn1)Nc1nc(-c2ccc3oc4ccccc4c3c2)cs1 | – | 25 µg/mL (≈ 51.3 µM) | –
CCCCCCc1cn(CC(=O)Nc2nc(-c3ccc4oc5ccccc5c4c3)cs2)nn1 | 28.6% | 1.56 µg/mL (≈ 3.39 µM) | –
O=C(Cn1cc(C2CC2)nn1)Nc1nc(-c2ccc3oc4ccccc4c3c2)cs1 | – | 50 µg/mL (≈ 120 µM) | –
CC(C)(C)c1ccc(-c2cn(CC(=O)Nc3nc(-c4ccc5oc6ccccc6c5c4)cs3)nn2)cc1 | 30.2% | 12.5 µg/mL (≈ 24.6 µM) | –
CCCCCCCCCCCCc1cn(CC(=O)Nc2nc(-c3ccc4oc5ccccc5c4c3)cs2)nn1 | 26.5% | 3.12 µg/mL (≈ 5.74 µM) | –
O=C(Cn1cc(CCCO)nn1)Nc1nc(-c2ccc3oc4ccccc4c3c2)cs1 | – | 25 µg/mL (≈ 57.7 µM) | –
O=C(Cn1cc(-c2ccc(-c3ccccc3)cc2)nn1)Nc1nc(-c2ccc3oc4ccccc4c3c2)cs1 | – | > 50 µg/mL | –
CCCCCc1cn(CC(=O)Nc2nc(-c3ccc4oc5ccccc5c4c3)cs2)nn1 | 20.4% | 12.5 µg/mL (≈ 28.1 µM) | –
CC[C@@H](CO)NCCN[C@@H](CC)CO [ETHAMBUTOL] | – | 3.13 µg/mL (≈ 15.3 µM) | –
NNC(=O)c1ccncc1 [ISONIAZID] | – | 0.1 µg/mL (≈ 0.729 µM) | –
NC(=O)c1cnccn1 [PYRAZINAMIDE] | – | 50 µg/mL (≈ 406 µM) | –
